# Laboratory results reported in patent US5114937A, “Renin inhibiting nonpeptides” (Warner-Lambert Company, priority 1989, dated 1992).
# Target: T1, renin (Homo sapiens, UniProt P00797)
# T1 sequence (P00797 67-406): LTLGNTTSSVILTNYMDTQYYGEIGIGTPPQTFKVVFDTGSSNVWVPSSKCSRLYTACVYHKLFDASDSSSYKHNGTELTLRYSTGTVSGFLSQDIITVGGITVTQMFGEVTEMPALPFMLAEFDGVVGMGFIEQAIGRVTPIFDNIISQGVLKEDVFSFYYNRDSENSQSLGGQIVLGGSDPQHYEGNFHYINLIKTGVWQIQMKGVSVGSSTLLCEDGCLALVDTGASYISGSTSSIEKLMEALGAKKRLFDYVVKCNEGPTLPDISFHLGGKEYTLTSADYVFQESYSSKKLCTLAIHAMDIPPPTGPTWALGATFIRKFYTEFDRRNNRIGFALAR
# Assay: in vitro renin inhibitory activity, radioimmunoassay for angiotensin I
# Assay type: biochemical
# Details: @ 1 × 10^-8 (molar); 2 hours at 37°
# Method: The effectiveness of the aforementioned compounds is determined by a test for in vitro renin inhibitory activity. This activity is determined by a standard radioimmunoassay for angiotensin I. ln this assay the enzyme, renin, incubated for 2 hours at 37° in the presence of a substrate, angiotensinogen, generates the product, angiotensin I. Test compounds are added to the incubation mixture. Relative activity is reported as the percent inhibition at the specified molar concentration or as the IC50, which is the molar concentration of test compound causing a 50% inhibition of the renin activity.
row,"In Vitro Activity, percent inhibition",SMILES
1,21%,CC(C)C[C@H](O)[C@H](O)[C@H](CC1CCCCC1)NC(=O)CC1OC1[C@H](Cc1ccccc1)NC(=O)OC(C)(C)C (stereo partly drawn)
2,1%,"CC(C)C[C@H](O)[C@H](O)[C@H](CC1CCCCC1)NC(=O)CCC(=O)[C@H](Cc1ccccc1)NC(=O)OCc1ccccc1 [ZPHE.psi.[COCH2 ]GLYCAD, Z-PHE.PSI.[COCH2]GLY-CAD]"

# Same assay, conditions: @ 3 × 10^-8 (molar); 2 hours at 37°
row,"In Vitro Activity, percent inhibition",SMILES
1,1%,"CC(C)C[C@H](O)[C@H](O)[C@H](CC1CCCCC1)NC(=O)C/C=C/[C@H](Cc1ccccc1)NC(=O)OC(C)(C)C [BOCPHE.psi.[CHCH]GLYCAD, BOC-PHE.PSI.[E-CH=CH]GLY-CAD]"

# Same assay, conditions: @ 10^-6 (molar; also 1 × 10^-6); 2 hours at 37°
row,"In Vitro Activity, percent inhibition",SMILES
1,26%,"CC(C)C[C@H](O)[C@H](O)[C@H](CC1CCCCC1)NC(=O)C(N)CC(O)[C@H](Cc1ccccc1)NC(=O)OC(C)(C)C (single isomer, unassigned) [drawing 43, BOC-PHE.PSI.[CHOHCH2 ]CH(NH2)CO-CAD]"
2,28%,CC(C)C[C@H](O)[C@H](O)[C@H](CC1CCCCC1)NC(=O)CCC(O)[C@@H](N)Cc1ccccc1 (stereo partly drawn) [PHE.psi.[CHOHCH2 ]GLYCAD]
3,45%,"CC(C)C[C@H](O)[C@H](O)[C@H](CC1CCCCC1)NC(=O)C(N)CC(O)[C@H](Cc1ccccc1)NC(=O)OC(C)(C)C (single isomer, unassigned) [drawing 42, BOC-PHE.PSI.[CHOHCH2 ]CH(NH2)CO-CAD]"

# Same assay, conditions: renin incubated 2 hours at 37° with angiotensinogen; values marked * = IC50; read-out: In Vitro Activity, IC50 (molar concentration causing a 50% inhibition of the renin activity)
row,IC50,SMILES
1,30 nM,"CC(C)C[C@H](O)[C@H](O)[C@H](CC1CCCCC1)NC(=O)CCC(O)[C@H](Cc1ccccc1)NC(=O)OC(C)(C)C (mixture of isomers) [BOCPHE.psi.[CHOHCH2 ]GLYCAD (Mixture of Diastereomers), BOC-PHE.PSI.[CHOHCH2 ]GLY-CAD (Mixture of Diastereomers)]"
2,2600 nM,"CC(C)C[C@H](O)[C@H](O)[C@H](CC1CCCCC1)NC(=O)CNC[C@H](Cc1ccccc1)NS(=O)(=O)N1CCOCC1 [SMOPHE.psi.[CH2 NH]GLYCAD, SMO-PHE.PSI.[CH2 NH]GLY-CAD]"
3,25 nM,"CC(C)C[C@H](O)[C@H](O)[C@H](CC1CCCCC1)NC(=O)C=CC(O)[C@H](Cc1ccccc1)NS(=O)(=O)N1CCOCC1 (stereo partly drawn) [SMOPHE.psi.[CHOHCHCHCO]CAD, SMO-PHE.PSI.[CHOHCH=CHCO]CAD]"
4,200 nM,"CC(C)C[C@H](O)[C@H](O)[C@H](CC1CCCCC1)NC(=O)CCC(O)[C@H](Cc1ccccc1)NC(=O)OCc1ccccc1 (single isomer, unassigned) [ZPHE.psi.[CHOHCH2 ]GLYCAD (Slow Eluting Diastereomer), Z-PHE.PSI.[CHOHCH2 ]GLY-CAD (Slow Isomer)]"
5,87 nM,"CC(C)C[C@H](O)[C@H](O)[C@H](CC1CCCCC1)NC(=O)CCC(=O)[C@H](Cc1ccccc1)NS(=O)(=O)N1CCOCC1 [SMOPHE.psi.[COCH2 ]GLYCAD, SMO-PHE.PSI.[COCH2]GLY-CAD]"
6,240 nM,"CC(C)C[C@H](O)[C@H](O)[C@H](CC1CCCCC1)NC(=O)CCC(O)[C@H](Cc1ccccc1)NC(=O)OCc1ccccc1 (mixture of isomers) [ZPHE.psi.[CHOHCH2 ]GLYCAD (Mixture of Diastereomers), Z-PHE.PSI.[CHOHCH2 ]GLY-CAD (Mixture of Diastereomers)]"
7,15 nM,"CC(C)C[C@H](O)[C@H](O)[C@H](CC1CCCCC1)NC(=O)CCC(O)[C@H](Cc1ccccc1)NC(=O)OC(C)(C)C (single isomer, unassigned) [BOCPHE.psi.[CHOHCH2 ]GLYCAD (Slow Eluting Diastereomer), BOC-PHE.PSI.[CHOHCH2 ]GLY-CAD (Slow Isomer)]"
8,17 nM,"CC(C)C[C@H](O)[C@H](O)[C@H](CC1CCCCC1)NC(=O)CCC(O)[C@H](Cc1ccccc1)NS(=O)(=O)N1CCOCC1 (single isomer, unassigned) [SMOPHE.psi.[CHOHCH2 ]GLYCAD (Isomer B), SMO-PHE.PSI.[CHOHCH2 ]GLY-CAD (Isomer B)]"
9,2.3 nM,"CC(C)C[C@H](O)[C@H](O)[C@H](CC1CCCCC1)NC(=O)CCC(O)[C@H](Cc1ccccc1)NS(=O)(=O)N1CCOCC1 (single isomer, unassigned) [SMOPHE.psi.[CHOHCH2 ]GLYCAD (Isomer A), SMO-PHE.PSI.[CHOHCH2 ]GLY-CAD (Isomer A)]"
